According to PubChem BioAssay (NCI):
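Method: 48-hour compound exposure of cells in 96-well plates, five concentrations, linear interpolation of endpoints. Abbreviation: GI50, concentration required for 50% inhibition of growth. TGI denotes the concentration required for complete inhibition of growth.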

What was measured:
Experiment in all cases: DTP human tumour cell line panel, 48 h
[1] = system: ACHN renal
[2] = system: CAKI-1 renal
[3] = system: HOP-92 NSCLC
[4] = system: IGROV1 ovarian
[5] = system: OVCAR-3 ovarian
[6] = system: RPMI-8226 leukemia
[7] = system: SK-MEL-5 melanoma
[8] = system: SN12C renal
[9] = system: SNB-19 CNS
[10] = system: SR leukemia

| Compound | GI50 [1] [µM] | TGI [1] [µM] | GI50 [2] [µM] | GI50 [3] [µM] | TGI [3] [µM] | GI50 [4] [µM] | TGI [4] [µM] | GI50 [5] [µM] | TGI [5] [µM] | GI50 [6] [µM] | TGI [6] [µM] | GI50 [7] [µM] | TGI [7] [µM] | GI50 [8] [µM] | TGI [8] [µM] | GI50 [9] [µM] | TGI [9] [µM] | GI50 [10] [µM] | TGI [10] [µM] | TGI [2] [µM] |
| --- | --- | --- | --- | --- | --- | --- | --- | --- | --- | --- | --- | --- | --- | --- | --- | --- | --- | --- | --- | --- |
| CCN(CC)c1ccc(C2CC(c3cc(OC)c(OC)c(OC)c3)=NN2)cc1 (stereo unspecified) | 1.55 | > 100 | 0.346 | 1.55 | 31.1 | 0.327 | > 25.1 | 1.88 | > 100 | 0.632 | 7.91 | 0.706 | 3.52 | 0.737 | > 100 | 0.636 | > 100 | 0.286 | 1.73 | – |
| CCCOc1ccc(-c2nc(-c3ccc(N=Cc4ccc(N(CCOS(C)(=O)=O)CCOS(C)(=O)=O)cc4C)cc3)cs2)cc1 | – | 18.7 | – | – | 52.7 | – | > 67.1 | – | 55.4 | – | > 100 | – | > 71.3 | – | > 92.6 | – | > 94.5 | – | 57 | 12.8 |
| O=C1/C=C/[C@@H](O)[C@@H]2C[C@@H](O)C[C@H]2/C=C/CCC[C@H](CCc2ccc(C(F)(F)F)cc2)O1 | 0.41 | > 100 | 0.312 | 0.227 | 0.89 | 0.309 | 7.01 | 0.264 | 0.69 | 0.282 | 0.806 | 0.0257 | 0.0647 | 0.329 | > 36.5 | 0.383 | > 100 | 0.311 | 3.16 | > 100 |
| COc1ccc(-c2nsc3c2NC(=O)CC3c2ccc(F)cc2)cc1 (stereo unspecified) | 6.73 | > 100 | 2.28 | 1.77 | 23.7 | 5.44 | > 100 | 3.79 | > 100 | 4.94 | > 100 | 3.22 | > 100 | > 23.4 | > 100 | 7.75 | > 100 | 1.1 | > 100 | 18.4 |
| CN[C@@H](C)C(=O)N[C@H]1CN(C(=O)CC(C)C)CC[C@H]2CC[C@@H](C(=O)NC(c3ccccc3)c3ccccc3)N2C1=O | > 100 | > 100 | > 100 | – | > 45.4 | > 100 | > 100 | > 89.7 | > 100 | > 74.9 | > 100 | 41.9 | > 100 | > 100 | > 100 | > 100 | > 100 | > 78 | > 100 | > 100 |
| O=C(O)C1=C(C(=O)Nc2ccccc2)C2C=CC1C2 (stereo unspecified) | – | > 100 | – | – | > 100 | – | > 100 | – | > 100 | – | > 100 | – | > 100 | – | > 100 | – | > 100 | – | > 100 | – |
| CN(C)c1ncnc2c1Cc1ccccc1C(=O)N2C | – | > 100 | – | – | > 100 | – | > 100 | – | > 100 | – | > 100 | – | > 100 | – | > 100 | – | > 100 | – | > 100 | > 100 |
| CC1CN(c2ccc(Cl)cc2)CC(C)(C)OC(=O)O1 (stereo unspecified) | – | > 100 | – | – | > 100 | – | > 100 | – | > 100 | – | > 100 | – | > 100 | – | > 100 | – | > 100 | – | > 100 | > 100 |
| CC(=O)[O-].CC(=O)[O-].O=C(N/N=C/c1cc(Cl)cc(Cl)c1O)c1ccncc1.[Ni+2] | – | > 100 | – | 17.1 | 76.9 | – | > 100 | – | 80.8 | – | > 100 | – | > 100 | – | > 100 | – | > 100 | – | > 100 | – |
| C/C1=C/C(=O)O[C@@H]2C[C@@H](CC[C@H](C)/C=C\C=C\CC1)O[C@@](O)([C@@H]1CSC(=O)N1CO)C2 | 0.0403 | > 100 | 0.0203 | 0.0165 | 0.0614 | 0.0251 | 0.0928 | 0.122 | 0.512 | 0.161 | 23.1 | 0.222 | 13.7 | 0.0485 | > 57.4 | 0.0833 | 0.671 | 0.154 | 16 | 0.382 |
| Cc1ccc2c(c1)C(C)Cc1c(ncnc1-n1cnc3cc(C)ccc31)N2C (stereo unspecified) | 0.0459 | 12 | 0.0407 | 0.301 | 5.21 | 0.0633 | 15.7 | – | – | 0.0406 | 3.89 | 0.0324 | 0.165 | 0.086 | 16.3 | 0.0522 | 21.9 | 0.0449 | 13.4 | 12.4 |
| COc1cc(-c2nc(NC(C)=O)sc2-c2ccnc(NCCNS(=O)(=O)c3ccccc3)n2)ccc1Cl | 3.1 | > 100 | – | 2.52 | 72 | 6.75 | > 100 | 3.09 | 32.6 | 3.77 | > 100 | 1.58 | 4.25 | 5.47 | > 100 | 6.51 | > 100 | 2.3 | > 100 | – |
| CC(C)C1C(=O)NC(CO)Cc2c[nH]c3c(C(c4c[nH]c5ccccc45)C(O)CO)ccc(c23)N1C (stereo unspecified) | – | > 100 | – | – | > 100 | – | > 100 | – | > 100 | – | > 100 | – | > 100 | – | > 100 | – | > 100 | – | > 100 | – |
| CC(=O)NC(CCCCN(Cc1ccccc1)C(=O)NCCCl)C(=O)NCc1ccccc1 (stereo unspecified) | – | > 100 | – | – | > 100 | – | > 100 | – | > 100 | – | > 100 | – | – | – | > 100 | – | > 100 | – | > 100 | > 100 |
| C#Cc1c(C)c(/C=C/C(C)=C/C=C/C(C)=C/C(=O)OC)n(C)c1C | – | > 100 | – | – | > 100 | – | > 100 | – | > 100 | – | > 100 | – | – | – | – | – | > 100 | – | > 100 | > 100 |
| COc1cc(Br)c(CC2(C#N)c3ccccc3C3C(N2C(=O)c2ccccc2)C3(Cl)Cl)cc1OC (stereo unspecified) | – | > 65.5 | – | – | > 65.5 | – | > 65.5 | – | > 65.5 | – | > 65.5 | – | > 65.5 | – | > 65.5 | – | > 65.5 | – | > 65.5 | – |
| CCC(=O)C1(c2ccccc2)CCN(C)CC1 | – | > 100 | – | – | > 100 | – | > 100 | – | – | – | > 100 | – | > 100 | – | – | – | > 100 | – | > 100 | > 100 |
